Results taken from article PMC3724770 (ACS combinatorial science, 2012).

Biological target: T1, fms-like receptor tyrosine kinase-3 (FLT3) (Homo sapiens, UniProt P36888)
T1 sequence (P36888 27-993): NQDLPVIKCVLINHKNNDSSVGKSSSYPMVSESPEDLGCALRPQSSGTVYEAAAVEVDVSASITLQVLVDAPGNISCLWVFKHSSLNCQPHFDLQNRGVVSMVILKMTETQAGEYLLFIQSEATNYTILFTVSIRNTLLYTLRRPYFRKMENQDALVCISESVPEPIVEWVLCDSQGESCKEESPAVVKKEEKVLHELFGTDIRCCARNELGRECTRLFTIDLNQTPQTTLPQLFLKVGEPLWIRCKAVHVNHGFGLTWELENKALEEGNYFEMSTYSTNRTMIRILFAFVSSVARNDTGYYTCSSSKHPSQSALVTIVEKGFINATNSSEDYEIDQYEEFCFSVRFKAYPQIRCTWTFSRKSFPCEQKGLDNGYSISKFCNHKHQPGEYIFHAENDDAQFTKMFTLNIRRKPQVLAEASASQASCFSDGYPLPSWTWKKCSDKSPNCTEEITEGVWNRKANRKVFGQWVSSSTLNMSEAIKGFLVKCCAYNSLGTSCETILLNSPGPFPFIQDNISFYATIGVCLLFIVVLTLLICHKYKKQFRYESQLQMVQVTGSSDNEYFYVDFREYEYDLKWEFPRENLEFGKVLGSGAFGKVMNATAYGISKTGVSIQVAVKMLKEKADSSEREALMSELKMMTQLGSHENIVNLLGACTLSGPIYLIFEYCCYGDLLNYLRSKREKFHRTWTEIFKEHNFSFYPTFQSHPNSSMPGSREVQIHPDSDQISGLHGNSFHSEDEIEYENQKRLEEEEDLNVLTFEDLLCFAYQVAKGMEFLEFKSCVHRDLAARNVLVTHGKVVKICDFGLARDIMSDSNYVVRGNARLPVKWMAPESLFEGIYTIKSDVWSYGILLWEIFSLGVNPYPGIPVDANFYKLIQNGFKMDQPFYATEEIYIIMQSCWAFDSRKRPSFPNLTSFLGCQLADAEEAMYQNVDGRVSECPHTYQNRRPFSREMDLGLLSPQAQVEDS
Type: biochemical

IC50: 1.92 µM
Compound: CCCCNc1ncnc2c(N3CCNCC3)c[nH]c12 [compound 9, N-butyl-7-(piperazin-1-yl)-5H-pyrrolo[3,2-d]pyrimidin-4-amine]
